Laboratory results from BigSolDB 2.1.

In the case of `COC(=O)Nc1nc2ccc(Sc3ccccc3)cc2[nH]1`, the solubility (mole fraction) (in DMF, 283.15 K) was 0.0397, the solubility (mole fraction) (in DMF, 288.15 K) was 0.0559 and the solubility (mole fraction) (in DMF, 293.15 K) was 0.0731. The solubility (mole fraction) (in DMF, 298.15 K) was 0.0997, the solubility (mole fraction) (in DMF, 303.15 K) was 0.134 and the solubility (mole fraction) (in DMF, 308.15 K) was 0.175. For the same compound, the solubility (mole fraction) (in DMF, 313.15 K) was 0.227, the solubility (mole fraction) (in DMF, 318.15 K) was 0.291 and the solubility (mole fraction) (in DMF, 323.15 K) was 0.374. For the same compound, the solubility (mole fraction) (in DMF, 328.15 K) was 0.47, the solubility (mole fraction) (in ethanol, 283.15 K) was 0.000165 and the solubility (mole fraction) (in ethanol, 288.15 K) was 0.000219. For the same compound, the solubility (mole fraction) (in ethanol, 293.15 K) was 0.000291, the solubility (mole fraction) (in ethanol, 298.15 K) was 0.000378 and the solubility (mole fraction) (in ethanol, 303.15 K) was 0.000478. It also gave a solubility (mole fraction) (in ethanol, 308.15 K) of 0.000598, a solubility (mole fraction) (in ethanol, 313.15 K) of 0.000734 and a solubility (mole fraction) (in ethanol, 318.15 K) of 0.000918. For the same compound, the solubility (mole fraction) (in ethanol, 323.15 K) was 0.00112, the solubility (mole fraction) (in ethanol, 328.15 K) was 0.00137 and the solubility (mole fraction) (in ethylene glycol, 283.15 K) was 0.000127. For the same compound, the solubility (mole fraction) (in ethylene glycol, 288.15 K) was 0.000171, the solubility (mole fraction) (in ethylene glycol, 293.15 K) was 0.000232 and the solubility (mole fraction) (in ethylene glycol, 298.15 K) was 0.000305. The solubility (mole fraction) (in ethylene glycol, 303.15 K) was 0.0004, the solubility (mole fraction) (in ethylene glycol, 308.15 K) was 0.000513 and the solubility (mole fraction) (in ethylene glycol, 313.15 K) was 0.000648. The solubility (mole fraction) (in ethylene glycol, 318.15 K) was 0.000812, the solubility (mole fraction) (in ethylene glycol, 323.15 K) was 0.00101 and the solubility (mole fraction) (in ethylene glycol, 328.15 K) was 0.00126. The solubility (mole fraction) (in water, 283.15 K) was 3.69e-06, the solubility (mole fraction) (in water, 288.15 K) was 4.51e-06 and the solubility (mole fraction) (in water, 293.15 K) was 5.71e-06. It also gave a solubility (mole fraction) (in water, 298.15 K) of 7.25e-06, a solubility (mole fraction) (in water, 303.15 K) of 9.03e-06 and a solubility (mole fraction) (in water, 308.15 K) of 1.12e-05. The solubility (mole fraction) (in water, 313.15 K) was 1.38e-05, the solubility (mole fraction) (in water, 318.15 K) was 1.7e-05 and the solubility (mole fraction) (in water, 323.15 K) was 2.07e-05. It also gave a solubility (mole fraction) (in water, 328.15 K) of 2.51e-05.
